Values after ≈ are worked out from the molar mass of the structure shown.
Experiments:
[1] = biological target: T1, RXRβ (Homo sapiens, UniProt P28702); assay: Ligand binding assay, RXRβ
T1 construct: made in house; host or cells: Baculovirus expression (insect cell extract)
T1 sequence (P28702 1-533): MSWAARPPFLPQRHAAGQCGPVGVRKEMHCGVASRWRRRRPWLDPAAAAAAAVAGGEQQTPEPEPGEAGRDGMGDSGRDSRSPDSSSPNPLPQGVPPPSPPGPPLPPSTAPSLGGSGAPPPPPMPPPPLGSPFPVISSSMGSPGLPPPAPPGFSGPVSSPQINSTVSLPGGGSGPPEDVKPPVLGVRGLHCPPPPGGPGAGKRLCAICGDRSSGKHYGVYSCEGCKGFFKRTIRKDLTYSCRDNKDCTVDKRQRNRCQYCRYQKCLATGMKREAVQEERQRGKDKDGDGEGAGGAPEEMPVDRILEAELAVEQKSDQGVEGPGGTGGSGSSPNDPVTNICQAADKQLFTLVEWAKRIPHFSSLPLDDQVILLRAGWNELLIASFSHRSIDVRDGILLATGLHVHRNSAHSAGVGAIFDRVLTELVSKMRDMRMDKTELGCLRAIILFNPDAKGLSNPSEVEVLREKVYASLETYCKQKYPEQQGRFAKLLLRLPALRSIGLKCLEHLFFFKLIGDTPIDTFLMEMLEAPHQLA
Procedure: (§1) All binding assays were performed in a similar fashion. All six receptor types were derived from the expressed receptor type (RARα, β, Γ and RXRα, β, Γ) expressed in Baculovirus. Stock solutions of all compounds were prepared as 10 mM ethanol solutions and serial dilutions carried out into 1:1 DMSO; ethanol. Assay buffers consisted of the following for all six receptor assays: 8% glycerol, 120 mM KCl 8 mM Tris, 5 mM CHAPS 4 mM DTT and 0.24 mM PMSF, pH-7.4@ room temperature.
(§2) All receptor binding assays were performed in the same manner. The final assay volume was 250 μl and contained from 10-40 μg of extract protein depending on receptor being assayed along with 5 nM of [^3H] all-trans retinoic acid or 10 nM [^3H] 9-cis retinoic acid and varying concentrations of competing ligand at concentrations that ranged from 0-10^−5 M. The assays were formatted for a 96 well minitube system. Incubations were carried out at 4° C. until equilibrium was achieved. Non-specific binding was defined as that binding remaining in the presence of 1000 nM of the appropriate unlabeled retinoic acid isomer. At the end of the incubation period, 50 μl of 6.25% hydroxyapitite was added in the appropriate wash buffer. The wash buffer consisted of 100 mM KCl, 10 mM Tris and either 5 mM CHAPS (RXRα, β, Γ) or 0.5% Triton X-100 (RARα, β, Γ). The mixture was vortexed and incubated for 10 minutes at 4° C., centrifuged and the supernatant removed. The hydroxyapitite was washed three more times with the appropriate wash buffer. The receptor-ligand complex was adsorbed by the hydroxyapitite. The amount of receptor-ligand complex was determined by liquid scintillation counting of hydroxyapitite pellet.
(§3) After correcting for non-specific binding, IC50 values were determined. […] The IC50 value was determined graphically from a loglogit plot of the data. The […] were determined by application of the Cheng-Prussof equation to the IC50 values, the labeled ligand concentration and the Kd of the labeled ligand.
(§4) The results of ligand binding assay are expressed in Kd numbers. (See Cheng et al. Biochemical Pharmacology Vol. 22 pp 3099-3108, expressly incorporated herein by reference.)

[2] = biological target: T2, RXRΓ (Homo sapiens, UniProt P48443); assay: Ligand binding assay, RXRΓ
T2 construct: made in house; host or cells: Baculovirus expression (insect cell extract)
T2 sequence (P48443 1-463): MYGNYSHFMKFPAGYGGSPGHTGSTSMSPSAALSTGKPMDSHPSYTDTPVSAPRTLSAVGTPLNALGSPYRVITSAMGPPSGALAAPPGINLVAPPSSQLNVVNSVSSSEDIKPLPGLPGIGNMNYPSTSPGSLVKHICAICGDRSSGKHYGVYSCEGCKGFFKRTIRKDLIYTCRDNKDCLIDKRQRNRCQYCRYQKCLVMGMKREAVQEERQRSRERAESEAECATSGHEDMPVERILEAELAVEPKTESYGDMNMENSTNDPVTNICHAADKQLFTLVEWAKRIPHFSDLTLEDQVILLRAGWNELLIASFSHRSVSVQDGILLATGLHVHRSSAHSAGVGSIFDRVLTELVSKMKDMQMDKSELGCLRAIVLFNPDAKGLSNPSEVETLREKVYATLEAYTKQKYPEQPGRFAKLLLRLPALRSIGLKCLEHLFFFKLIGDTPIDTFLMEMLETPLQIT
Procedure: as §1, §2, §3, §4

[3] = system: limb bud mesenchymal cells; assay: Chondrogenesis suppression bioassay (teratogenic potency); type: cell-based; settings: read-out: IC50 (50% inhibition of chondrogenesis); mouse limb bud spot cultures, 96 hours after plating; greater IC50 signifies lesser teratogenecity
Procedure: High-density “spot” cultures of limb bud mesenchymal cells are used to compare the ability of various concentrations of test drugs to suppress chondrogenic differentiation as a bioassay. Forelimb buds of mouse embryos on day 12 of gestation (54±2 somites) are dissociated in a trypsin-EDTA solution, and the resultant single-cell suspension is plated as 20-μl spots (200,000 cells/spot) on plastic culture dishes. Retinoid concentrations ranging from 0.3 ng/ml to 3 μg/ml (1 nM−10 μM) are added to the culture medium (Eagle's MEM±10% fetal bovine serum, GIBCO) 24 hours after initial plating. Control cultures receive only the vehicle (ethanol, concentration≦1% by vol); Retinoic acid is used as a positive control in another set of cultures.
The cultures are terminated 96 hours after plating, at which time the medium is removed and the cells are fixed for 1 hour in 10% formalin containing 0.5% cetylpyridinium chloride. The cultures are rinsed in acetic acid and stained for 1 hour in 0.5% Alcian blue solution at pH 1.0, differentiated in 3% acetic acid, and then dehydrated in ethanol and scored for chondrogenesis under the microscope. An absence or reduction in the number of cartilage nodules in stained cultures as compared with control cultures is taken as a measure of suppression of chondrogenesis. The number of cartilage nodules stained in the whole spot, mean number of nodules, and standard deviations are calculated for four replicate cultures per treatment. […] The IC50 values are expressed in nanogram per mililiter (ng/ml) units. An IC50 value of greater concentration in this assay signifies lesser teratogenecity.

[4] = Weight loss in rats treated for 3 days; type: in vivo, rat; settings: rats
Procedure: Weight loss or gain that experimental animals experience upon administration of retinoid compounds is another test of the drug's toxicity, with significant weight loss at relatively low doses indicating a significant toxic side effect of the retinoid. In one experiment, groups of 5 rats were treated with varying doses (administered in corn oil) of a test retinoid for 3 days. The rats were euthanized 24 hours after the last dose.

[5] = system: hairless mice [Crl:SKH1-hrBR]; assay: Eight day topical skin irritation assay in hairless mice; settings: for Abrasion Score / Body Weight % gain or (loss) / Composite Score / Flaking Score / Mortality (out of 4): 5 days
Procedure: More particularly, skin irritation was measured on a semi-quantitative scale by the daily subjective evaluation of skin flaking and abrasions. A single number, the topical irritation score, summarizes the skin irritation induced in an animal during the course of an experiment. The topical irritation score is calculated as follows. The topical irritation score is the algebraic sum of a composite flaking score and a composite abrasion score. The composite scores range from 0-9 and 0-8 for flaking and abrasions, respectively, and take into account the maximum severity, the time of onset, and the average severity of the flaking and abrasions observed.
The severity of flaking is scored on a 5-point scale and the severity of abrasions is scored on a 4-point scale, with higher scores reflecting greater severity. The maximum severity component of the composite scores would be the highest daily severity score assigned to a given animal during the course of observation.
For the time of onset component of the composite score, a score ranging from 0 to 4 is assigned as follows:
The average severity component of the composite score is the sum of the daily flaking or abrasion scores divided by the number of observation days.
To calculate the composite flaking and abrasion scores, the average severity and time of onset scores are summed and divided by 2. The result is added to the maximal severity score. The composite flaking and abrasion scores are then summed to give the overall topical irritation score. Each animal receives a topical irritation score, and the values are expressed as the mean±SD of the individual scores of a group of animals. Values are rounded to the nearest integer.
Thus, female hairless mice [Crl:SKH1-hrBR] […] Treatments are applied to the dorsal skin in a total volume of 4 ml/kg (−0.1 ml).

[6] = system: AML-193 cells (acute monocytic leukemia); assay: AML 193 cell culture assay (3H-thymidine incorporation); type: cell-based, human; settings: FIG. 3; low concentrations
Procedure: (§5) All trans-retinoic acid (t-RA) (Sigma Chemicals Co., St. Louis, Mo.) was stored at −70° C. Prior to each experiment the compound was dissolved in 100% ethanol at 1 mM and diluted in culture medium immediately before use. All experiments were performed in subdued light. Controls were assayed using the same concentration of ethanol as present in the experimental plates and this concentration of diluent had no effect in either assay.
AML-193 was established from the blast cells classified as M5 Acute Monocyte Leukemia. The growth factor, […] (GM-CSF) was required to establish this cell line and growth factors are necessary for its continuous proliferation in chemically defined medium. AML-193 cells were grown and maintained in Iscove's modified Dulbecco's medium supplemented with 10% fetal bovine serum, glutamine and antibiotics with 5 μg/ml insulin (Sigma Chemical Co.) and 2 ng/ml rh GM-CSF (R and D Systems). The cells were diluted to a concentration of 3×10^5/ml twice a week.
(§6) AML-193 cells were plated in a 96 well round bottom microtiter plate (Costar) at a density of 1,000 cells/well. To appropriate wells, retinoid test compounds were added at the final concentrations indicated for a final volume of 150 μl/well. The plates were incubated for 96 hours at 37° C. in a humidified atmosphere of 5% CO2 in air. Subsequently, 1 μCi of [5′-^3H]-thymidine (Amersham, U.K., 43 Ci/mmol specific activity) in 25 μl culture medium was added to each well and the cells were incubated for an additional 6 hours.
(§7) The cell lines were then processed as follows: the cellular DNA was precipitated with 10% trichloroacetic acid onto glass fiber filter mats using a SKATRON multi-well cell harvester (Skatron Instruments, Sterling Va.). Radioactivity incorporated into DNA, as a direct measurement of cell growth, was measured by liquid scintillation counting. The numbers represent the mean disintegrations per minute of incorporated thymidine from triplicate wells±SEM.

[7] = system: RPMI 8226 cells (malignant myeloma); assay: RPMI 8226 cell culture assay (3H-thymidine incorporation); type: cell-based, human; settings: FIG. 1; for growth of RPMI 8226 malignant cells: 96 hours; for growth of RPMI 8226 cells at low concentration: low concentration range 10^−12 to approximately 10^−9
Procedure: as §5
The cell lines, RPMI 8226, ME-180 and AML-193 were obtained from the American Type Culture Collection (ATCC, Rockville, Md.). RPMI 8226 is a human hematopoietic cell line obtained from the peripheral blood of a patient with multiple myeloma. The cells resemble the lymphoblastoid cells of other human lymphocyte cell lines and secrete […] light chains of immunoglobulin. RPMI-8226 cells are grown in RPMI medium (Gibco) supplemented with 10% fetal bovine serum, glutamine and antibiotics. The cells were maintained as suspension cultures grown at 37° C. in a humidified atmosphere of 5% CO2 in air. The cells were diluted to a concentration of 1×10^5/ml twice a week.
as §6, with “The method used for determination of the incorporation of radiolabeled thymidine was adapted from the procedure described by Shrivastav et al. RPMI-8226” for “AML-193”, “U.K.” for “U.K.,”, “hours. The cultures were further processed as described below.” for “hours.”
as §7

SMILES: CC(C)(C)c1cc(C(=O)Nc2ccc(C(=O)O)cc2)cc(C(C)(C)C)n1 [Compound 44]
- Kd [1]: > 1000 nM
- Kd [2]: > 1000 nM

SMILES: CC1(C)CC(C)(C)c2cc(C(=O)Nc3ccc(C(=O)O)c(F)c3)cc(Br)c2O1 [Compound 10, 2-Fluoro-4-[(2′,2′,4′,4′-tetramethyl-8′-bromochroman-6′-yl)carbamoyl]benzoic Acid]
- IC50 [3]: 250 ng/mL (≈ 555 nM)

SMILES: C/C(=C\c1ccc(C(=O)O)cc1)c1ccc2c(c1)C(C)(C)CCC2(C)C [TTNPB]
- IC50 [3]: 0.01 ng/mL (≈ 0.0287 nM)
- weight loss in similar tests ([4]; similar tests): very significant weight loss
- Abrasion Score ([5]; dose 0.9 nanomol/25 g topical): 3
- Body Weight % gain or (loss) ([5]; dose 0.9 nanomol/25 g topical): 5 ± 2%
- Composite Score ([5]; dose 0.9 nanomol/25 g topical): 8 ± 2
- Flaking Score ([5]; dose 0.9 nanomol/25 g topical): 5
- Mortality (out of 4) ([5]; dose 0.9 nanomol/25 g topical): 0 out of 4
- Abrasion Score ([5]; dose 2.7 nanomol/25 g topical): 3
- Body Weight % gain or (loss) ([5]; dose 2.7 nanomol/25 g topical): (4 ± 3) %
- Composite Score ([5]; dose 2.7 nanomol/25 g topical): 9 ± 2
- Flaking Score ([5]; dose 2.7 nanomol/25 g topical): 6
- Mortality (out of 4) ([5]; dose 2.7 nanomol/25 g topical): 0 out of 4
- Abrasion Score ([5]; dose 9 nanomol/25 g topical): 5
- Body Weight % gain or (loss) ([5]; dose 9 nanomol/25 g topical): (11 ± 3) %
- Composite Score ([5]; dose 9 nanomol/25 g topical): 11 ± 2
- Flaking Score ([5]; dose 9 nanomol/25 g topical): 7
- Mortality (out of 4) ([5]; dose 9 nanomol/25 g topical): 0 out of 4
- skin irritation (summary in words) ([5]; topical, hairless mice, RARα selective compound up to 1000 nmol/25 g): much more serious skin irritation

SMILES: CC1(C)CCC(C)(C)c2c(Br)cc(C(=O)Nc3ccc(C(=O)O)c(F)c3)cc21 [Compound 4, 2-Fluoro-4-[(4′-bromo-5′,6′,7′,8′-tetrahydro-5′,5′,8′,8′-tetramethylnaphthalen-2′-yl)carbamoyl]benzoic Acid]
- AML-193 cell proliferation at low concentrations [6]: reduce cell proliferation at low concentrations
- growth of RPMI 8226 malignant cells [7]: inhibited the growth
- growth of RPMI 8226 cells at low concentration [7]: do not stimulate but rather already in this low concentrations inhibit the growth

SMILES: CC(C)(C)c1cc(C(=O)Nc2ccc(C(=O)O)c(F)c2)c(O)c(C(C)(C)C)c1 [Compound 48]
- Kd [1]: > 1000 nM
- Kd [2]: > 1000 nM

SMILES: CC1(C)CC(C)(C)c2cc(C(=O)Nc3ccc(C(=O)O)c(F)c3)cc(C(F)(F)F)c2O1 [Compound 12]
- AML-193 cell proliferation at low concentrations [6]: reduce cell proliferation at low concentrations
- growth of RPMI 8226 malignant cells [7]: inhibited the growth
- growth of RPMI 8226 cells at low concentration [7]: do not stimulate but rather already in this low concentrations inhibit the growth

SMILES: CC1(C)CC(C)(C)c2cc(C(=O)Nc3ccc(C(=O)O)c(F)c3)cc(I)c2O1 [Compound 18]
- IC50 [3]: 220 ng/mL (≈ 442 nM)
- weight loss compared to control ([4]; daily doses up to 90 μmol/kg/day in corn oil for 3 days, FIG. 6, FIG. 7): virtually no weight loss even in the high dose of 90 μmol/kg/day
- Abrasion Score ([5]; dose 100 nanomol/25 g topical): 1
- Body Weight % gain or (loss) ([5]; dose 100 nanomol/25 g topical): 8 ± 7%
- Composite Score ([5]; dose 100 nanomol/25 g topical): 1 ± 1
- Flaking Score ([5]; dose 100 nanomol/25 g topical): 0
- Mortality (out of 4) ([5]; dose 100 nanomol/25 g topical): 0 out of 4
- Abrasion Score ([5]; dose 1000 nanomol/25 g topical): 1
- Body Weight % gain or (loss) ([5]; dose 1000 nanomol/25 g topical): 4 ± 1%
- Composite Score ([5]; dose 1000 nanomol/25 g topical): 2 ± 0
- Flaking Score ([5]; dose 1000 nanomol/25 g topical): 1
- Mortality (out of 4) ([5]; dose 1000 nanomol/25 g topical): 0 out of 4
- AML-193 cell proliferation at low concentrations [6]: reduce cell proliferation at low concentrations

From patent US6610744B2, “Methods of treatment with compounds having RARα receptor specific or selective activity” (Allergan, Inc., priority 1995, dated 2003)
